Reference: patent US11124517B2 (CRYSTAL PHARMACEUTICAL (SUZHOU) CO., LTD., priority 2017, dated 2021)
Converted amounts (≈) assume the structure as drawn.

What was measured:
[1] = Hygroscopicity by dynamic vapor sorption (DVS); type: physicochemical
Method: Dynamic vapor sorption (DVS) was applied to test hygroscopicity of Form G and the crystalline form of the prior art with about 10 mg of samples. The weight gains at each relative humidity were recorded in a cycle of 0-95%-0 RH.

[2] = Bulk and tapped density of powder; type: physicochemical; conditions: for Bulk density (ρ0): about 500 mg in 5-mL measuring cylinder; for Tapped density (ρf): tapped 1250 times
Method: The density of powder is mainly referred to the bulk density and tapped density. The bulk density refers to the density obtained by dividing the mass of the powder by the volume of the powder in the container. The tapped density is obtained by dividing the mass of the powder by the volume of the powder which is tapped to the tightest state.
About 500 mg of Form G and the crystalline form of the prior art are added into a 5-mL measuring cylinder to measure the bulk volumes. The bulk density was calculated according to the equation: bulk density ρ0=powder mass/bulk volume. The samples were tapped 1250 times to make them in the tightest state and the tapped volumes were recorded. The tapped density was calculated according to tapped density ρf=powder mass/tapped volume.

[3] = Flowability by compressibility index (Carr index); type: physicochemical; conditions: graded from compressibility index
Method: Compressibility is usually used to evaluate the flowability of powder and granular intermediates during the formulation process, and is known as compressibility index (c). Compressibility index test method is as follows: a certain amount of powder was added into a measuring cylinder and bulk volume was recorded. Then the powder was tapped to make it in the tightest state, and the tapped volume was recorded. The bulk density (ρ0), tapped density (ρf) were calculated, and compressibility index was calculated according to c=(ρf−ρ0)/pf. Compressibility index, also known as Carr index, is an important index for evaluating flowability.
The test method of Compressibility index is as follows: Compressibility index was calculated according to bulk density ρ0 and tapped density ρf of Form G and the crystalline form of the prior art with c=(ρf−ρ0)/ρf*100%.

[4] = Adhesiveness: material sticking to the punch on tableting; type: physicochemical; conditions: 30 mg, φ8 mm round tooling, 10 KN, 30 s
Method: 30 mg of Form G and the crystalline form of the prior art were weighed and added into the dies of φ8 mm round tooling, tableted at 10 KN and held for 30 s. The amount of material sticking to the punch was weighed. The compression was repeated twice and the cumulative amount, maximum amount and average amount of material sticking to the punch during the compression process were recorded.

[5] = Kinetic solubility in biorelevant media and water (HPLC); conditions: thermodynamic from solid
Method: (§1) Simulated gastrointestinal fluids such as SGF (Simulated gastric fluids), FaSSIF (Fasted state simulated intestinal fluids) and FeSSIF (Fed state simulated intestinal fluids) are biorelevant media. […] 20 mg of Form G and 20 mg of crystalline form of the prior art were suspended into 1.5 mL of SGF, 1.5 mL of FaSSIF, 1.5 mL of FaSSIF and 1.5 mL of water to get saturated solutions. After equilibrated for 1 h, 4 h and 24 h, concentrations of the saturated solutions were measured by HPLC (mg/mL).

[6] = Stability of Form G on storage, crystalline form checked by XRPD; type: physicochemical; conditions: for Crystalline form after storage: XRPD
Excerpt: Crystalline forms were checked by XRPD.

physchem = conditions: thermodynamic from solid
Method: as §1

[7] = FaSSIF (fasted state simulated intestinal fluid), fassif
[8] = FeSSIF (fed state simulated intestinal fluid), fessif
[9] = SGF (simulated gastric fluid), simulated gastric fluid

**Q.** For `CCS(=O)(=O)N1CC(CC#N)(n2cc(-c3ncnc4[nH]ccc34)cn2)C1` [Crystalline form of the prior art, Baricitinib, reference compound], which Weight gain % ([1]; Relative humidity 0) is on record?
**A.** 0%

**Q.** And the Weight gain % ([1]; Relative humidity 10%)?
**A.** 0.07%

**Q.** And the Weight gain % ([1]; Relative humidity 20%)?
**A.** 0.11%

**Q.** And the Weight gain % ([1]; Relative humidity 30%)?
**A.** 0.15%

**Q.** What about the Weight gain % ([1]; Relative humidity 40%) of the same compound?
**A.** 0.19%

**Q.** And the Weight gain % ([1]; Relative humidity 50%)?
**A.** 0.24%

**Q.** And the Weight gain % ([1]; Relative humidity 60%)?
**A.** 0.30%

**Q.** What about the Weight gain % ([1]; Relative humidity 70%) of the same compound?
**A.** 0.36%

**Q.** What about the Weight gain % ([1]; Relative humidity 80%) of the same compound?
**A.** 0.44%

**Q.** And the Weight gain % ([1]; Relative humidity 90%)?
**A.** 0.59%

**Q.** What about the Weight gain % ([1]; Relative humidity 95%) of the same compound?
**A.** 0.78%

**Q.** And the “Bulk density (ρ0)” value [2]?
**A.** 0.133 g/mL

**Q.** What about the “Tapped density (ρf)” value [2] of the same compound?
**A.** 0.204 g/mL

**Q.** And the Flowability [3]?
**A.** Very poor (32-37)

**Q.** And the Flowability ([3]; listed as the prior art form)?
**A.** very poor

**Q.** And the “Average amount of material sticking to the punch” value [4]?
**A.** 0.21 mg

**Q.** And the “Cumulative amount of material sticking to the punch” value [4]?
**A.** 0.41 mg

**Q.** What about the “Maximum amount of material sticking to the punch” value [4] of the same compound?
**A.** 0.43 mg

**Q.** What about the solubility kinetic at 1 h [5, 7] of the same compound?
**A.** 16 µg/mL (≈ 43.1 µM)

**Q.** And the solubility kinetic at 4 h [5, 7]?
**A.** 18 µg/mL (≈ 48.5 µM)

**Q.** And the solubility kinetic at 24 h [5, 7]?
**A.** 18 µg/mL (≈ 48.5 µM)

**Q.** What about the solubility kinetic at 1 h [5, 8] of the same compound?
**A.** 35 µg/mL (≈ 94.2 µM)

**Q.** And the solubility kinetic at 4 h [5, 8]?
**A.** 31 µg/mL (≈ 83.5 µM)

**Q.** What about the solubility kinetic at 24 h [5, 8] of the same compound?
**A.** 33 µg/mL (≈ 88.8 µM)

**Q.** What about the solubility kinetic at 1 h [5, 9] of the same compound?
**A.** 1900 µg/mL (≈ 5120 µM)

**Q.** And the solubility kinetic at 4 h [5, 9]?
**A.** 1900 µg/mL (≈ 5120 µM)

**Q.** And the solubility kinetic at 24 h [5, 9]?
**A.** 1900 µg/mL (≈ 5120 µM)

**Q.** And the solubility kinetic at 1 h ([5]; water)?
**A.** 8.9 µg/mL (≈ 24 µM)

**Q.** And the solubility kinetic at 4 h ([5]; water)?
**A.** 12 µg/mL (≈ 32.3 µM)

**Q.** What about the solubility kinetic at 24 h ([5]; water) of the same compound?
**A.** 13 µg/mL (≈ 35 µM)

**Q.** With `CCS(=O)(=O)N1CC(CC#N)(n2cc(-c3ncnc4[nH]ccc34)cn2)C1` [Form G, Baricitinib] as the compound, how does the “Time for which the form is stable” value ([6]; 25° C./60% RH (long term)) read?
**A.** at least 6 months

**Q.** What about the “Crystalline form after storage” value ([6]; 25° C./60% RH, 6 months) of the same compound?
**A.** Form G

**Q.** What about the “Time for which the form is stable” value ([6]; 40° C./75% RH (accelerated)) of the same compound?
**A.** at least 6 months

**Q.** And the “Crystalline form after storage” value ([6]; 40° C./75% RH, 6 months)?
**A.** Form G

**Q.** And the “Time for which the form is stable” value ([6]; 60° C./75% RH)?
**A.** at least 1 week

**Q.** And the “Crystalline form after storage” value ([6]; 60° C./75% RH, 1 week)?
**A.** Form G

**Q.** And the “Time for which the form is stable” value ([6]; 80° C.)?
**A.** at least 1 week

**Q.** What about the “Crystalline form after storage” value ([6]; 80° C., 1 week) of the same compound?
**A.** Form G

**Q.** And the Weight gain % ([1]; Relative humidity 0)?
**A.** 0%

**Q.** And the Weight gain % ([1]; Relative humidity 10%)?
**A.** 0.01%

**Q.** And the Weight gain % ([1]; Relative humidity 20%)?
**A.** 0.03%

**Q.** What about the Weight gain % ([1]; Relative humidity 30%) of the same compound?
**A.** 0.04%

**Q.** What about the Weight gain % ([1]; Relative humidity 40%) of the same compound?
**A.** 0.06%

**Q.** What about the Weight gain % ([1]; Relative humidity 50%) of the same compound?
**A.** 0.07%

**Q.** And the Weight gain % ([1]; Relative humidity 60%)?
**A.** 0.10%

**Q.** What about the Weight gain % ([1]; Relative humidity 70%) of the same compound?
**A.** 0.15%

**Q.** And the Weight gain % ([1]; Relative humidity 80%)?
**A.** 0.21%

**Q.** What about the Weight gain % ([1]; Relative humidity 90%) of the same compound?
**A.** 0.27%

**Q.** What about the Weight gain % ([1]; Relative humidity 95%) of the same compound?
**A.** 0.34%

**Q.** And the “Crystalline form change before and after DVS” value ([1]; XRPD overlay, cycle 0-95%-0 RH)?
**A.** no crystalline form change

**Q.** What about the “Bulk density (ρ0)” value [2] of the same compound?
**A.** 0.538 g/mL

**Q.** And the “Tapped density (ρf)” value [2]?
**A.** 0.614 g/mL

**Q.** And the “Average amount of material sticking to the punch” value [4]?
**A.** 0.06 mg

**Q.** What about the “Cumulative amount of material sticking to the punch” value [4] of the same compound?
**A.** 0.12 mg

**Q.** And the “Maximum amount of material sticking to the punch” value [4]?
**A.** 0.12 mg

**Q.** And the solubility kinetic at 1 h (physchem; fassif)?
**A.** 81 µg/mL (≈ 218 µM)

**Q.** And the solubility kinetic at 4 h (physchem; fassif)?
**A.** 100 µg/mL (≈ 269 µM)

**Q.** What about the solubility kinetic at 24 h (physchem; fassif) of the same compound?
**A.** 140 µg/mL (≈ 377 µM)

**Q.** What about the solubility kinetic at 1 h (physchem; fessif) of the same compound?
**A.** 130 µg/mL (≈ 350 µM)

**Q.** And the solubility kinetic at 4 h (physchem; fessif)?
**A.** 170 µg/mL (≈ 458 µM)

**Q.** And the solubility kinetic at 24 h (physchem; fessif)?
**A.** 220 µg/mL (≈ 592 µM)

**Q.** And the solubility kinetic at 1 h (physchem; simulated gastric fluid)?
**A.** 2600 µg/mL (≈ 7000 µM)

**Q.** And the solubility kinetic at 4 h (physchem; simulated gastric fluid)?
**A.** 2700 µg/mL (≈ 7270 µM)

**Q.** What about the solubility kinetic at 24 h (physchem; simulated gastric fluid) of the same compound?
**A.** 2800 µg/mL (≈ 7540 µM)

**Q.** And the solubility kinetic at 1 h (physchem; water)?
**A.** 52 µg/mL (≈ 140 µM)

**Q.** And the solubility kinetic at 4 h (physchem; water)?
**A.** 66 µg/mL (≈ 178 µM)

**Q.** And the solubility kinetic at 24 h (physchem; water)?
**A.** 96 µg/mL (≈ 258 µM)
